According to patent publication US20240199558A1, “2,4,6-TRISUBSTITUTED 1,3,5-TRIAZINES AS MODULATORS OF CX3CR1” (ASTRAZENECA AB, priority 2022, published 2024):

What was measured:
CX3CR1 [1] = biological target: T1, CX3CR1 (Homo sapiens (Human), UniProt P49238); assay: CX3CR1-dependent cell adhesion to recombinant CX3CL1 in human whole blood under flow; type: cell-based; conditions: recombinant full-length CX3CL1
Experimental: (§1) Adhesion of cells to recombinant full-length human CX3CL1 was monitored under physiological flow using a Cellix VenaFlux microfluidics platform with connected fluorescent microscope and camera, and using Vena8 Fluoro+ Biochips (Cellix) pre-coated with anti-His monoclonal antibody (25 μg/mL; R&D Systems) and His-tagged full-length CX3CL1 (15 μg/mL; R&D Systems).
CX3CR1-Dependent Cell Adhesion to Recombinant CX3CL1 in Human Whole Blood Under Flow
Human whole blood from healthy volunteers was collected using heparin as anti-coagulant. […] Compound stocks or DMSO vehicle were added to 0.5 or 1.0 ml aliquots of blood such that the final concentration of DMSO was 0.1%, corresponding to a 1000-fold dilution of compound stock. Blood was pre-incubated with compound at room temperature for 60 minutes with gentle shaking. DiOC6 (Invitrogen, 5 μM) or Hoechst 33342 (Invitrogen, 300 μM) dye was subsequently added to fluorescently label cells and enable their detection during the flow adhesion assay. To monitor adhesion, blood was allowed to flow through the channels of a Vena8 Fluoro+ biochip at 2.25 dynes per cm^2 for 3-6 minutes prior to capturing images for quantification. Fluorescent cells adhering to the channels were counted and the mean and/or total count across five to six images in each channel were used for calculating concentration-response curves.

CX3CR1 [2] = biological target: T1, CX3CR1; assay: hCX3CR1 [125I]-CX3CL1 displacement binding (SPA); conditions: CHO-hCX3CR1 membranes, [125I]-CX3CL1, SPA beads
Experimental: hCX3CR1 [^125I]-CX3CL1 Displacement Binding (SPA)
CHO-hCX3CR1 membranes (3 μg per well) together with […] [^125I]-CX3CL1 (Perkin Elmer) and different concentrations of competitor compound were incubated together with 400 μg/well WGA coated PVT SPA beads (Perkin Elmer) in 50 mM HEPES (pH 7.4), 10 mM MgCl2, 1 mM EDTA and 0.1% Gelatin in a Greiner polystyrene flat-bottom 384-well plate. The plate was incubated for 20 h at room temperature before the radioactivity was measured using a MicroBeta Trilux reader (PerkinElmer). The DMSO concentration was held constant at 1%.

CX3CR1 [3] = biological target: T1, CX3CR1; assay: hCX3CR1 [3H]-AZD8797 competitive binding assay (filter); conditions: CHO-hCX3CR1 membranes, 2 nM [3H]-AZD8797
How it was run: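 Filtration radioligand displacement assay: competitor titrations compete with 2 nM [3H]-AZD8797 for membranes from CHO cells expressing hCX3CR1 (9 μg/well). Incubation was 2 h at room temperature in HEPES pH 7.4 with MgCl2, CaCl2, 0.5% BSA and 1% DMSO. Filters were washed with ice-cold high-salt (500 mM NaCl) buffer, and retained radioactivity was scintillation-counted.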

CX3CR1 [4] = biological target: T1, CX3CR1; assay: Flow adhesion for human B-lymphocyte cell line RPMI-8226; type: cell-based; conditions: RPMI-8226 cells under flow, recombinant full-length CX3CL1
Experimental: as §1
Flow Adhesion for Human B-Lymphocyte Cell Line RPMI-8226
Cells were cultured in RPMI 1640 medium with GlutaMAX and 20% FBS (HyClone, Perbio). Before each experiment, cells were centrifuged at 320 g and resuspended to 5×10^6 cells per ml in RPMI 1640 with 1% FBS. Cells were pre-incubated for 15 minutes at room temperature with CX3CR1 antagonist in an 8-step 3-fold dilution series starting at 3.3 μM. DMSO concentration was kept constant for all antagonist concentrations at 0.1%. Cells were pumped through the channels of the Vena8 Fluoro+ biochip at 0.5 dynes per cm2 for 3 m prior to capturing microscope images for quantification. Cells adhering to channels were counted and the mean values across five images in each channel were used for calculating the concentration-response curves.

T1 sequence (P49238 whole entry): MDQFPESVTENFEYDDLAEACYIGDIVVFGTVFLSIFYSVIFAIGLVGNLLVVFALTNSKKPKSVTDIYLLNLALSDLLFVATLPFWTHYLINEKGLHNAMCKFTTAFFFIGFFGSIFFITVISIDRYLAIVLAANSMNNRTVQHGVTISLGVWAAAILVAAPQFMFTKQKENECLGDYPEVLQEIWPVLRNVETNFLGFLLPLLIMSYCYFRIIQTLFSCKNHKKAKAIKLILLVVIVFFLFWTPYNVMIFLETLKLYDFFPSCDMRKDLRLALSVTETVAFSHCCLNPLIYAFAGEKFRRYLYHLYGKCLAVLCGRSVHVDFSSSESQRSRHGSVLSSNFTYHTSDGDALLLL

Row | Compound | IC50 (CX3CR1 [1]) | IC50 (CX3CR1 [2]) | IC50 (CX3CR1 [3]) | IC50 (CX3CR1 [4])
1 | CC(C)C[C@H](CO)Nc1nc(C[C@@H](C)c2cnc(C3CC3)nc2)nc(NS(C)(=O)=O)n1 (single isomer, unassigned) [Example 12, N-(4-((R*)-2-(2-Cyclopropylpyrimidin-5-yl)propyl)-6-(((R)-1-hydroxy-4-methylpentan-2-yl)amino)-1,3,5-triazin-2-yl)methanesulfonamide] |  | 1860 nM | 176 nM | 255 nM
2 | COc1ncccc1[C@@H](C)Cc1nc(N[C@@H](CO)CC(C)C)nc(NS(C)(=O)=O)n1 (single isomer, unassigned) [Example 18, N-(4-(((R)-1-Hydroxy-4-methylpentan-2-yl)amino)-6-((S*)-2-(2-methoxypyridin-3-yl)propyl)-1,3,5-triazin-2-yl)methanesulfonamide] |  | 16700 nM | 758 nM | 
3 | CC(C)C[C@H](CO)Nc1nc(C[C@H](C)c2ccnc(Cl)c2)nc(NS(C)(=O)=O)n1 (single isomer, unassigned) [Example 25, N-(4-((S*)-2-(2-Chloropyridin-4-yl)propyl)-6-(((R)-1-hydroxy-4-methylpentan-2-yl)amino)-1,3,5-triazin-2-yl)methanesulfonamide] |  | 13500 nM | 1350 nM | 
4 | COc1ccc([C@H](C)Cc2nc(N[C@@H](CO)CC(C)C)nc(NS(C)(=O)=O)n2)c(OC)n1 (single isomer, unassigned) [Example 52, N-(4-((R*)-2-(2,6-Dimethoxypyridin-3-yl)propyl)-6-(((R)-1-hydroxy-4-methylpentan-2-yl)amino)-1,3,5-triazin-2-yl)methanesulfonamide] |  | 5520 nM | 450 nM | 
5 | COc1ccc([C@@H](C)Cc2nc(N[C@@H](CO)CC(C)C)nc(NS(C)(=O)=O)n2)c(OC)n1 (single isomer, unassigned) [Example 53, N-(4-((S*)-2-(2,6-Dimethoxypyridin-3-yl)propyl)-6-(((R)-1-hydroxy-4-methylpentan-2-yl)amino)-1,3,5-triazin-2-yl)methanesulfonamide] |  | 11000 nM | 528 nM | 
6 | COc1ccc([C@@H](C)Cc2nc(N[C@@H](CO)CC(C)C)nc(NS(C)(=O)=O)n2)cn1 (single isomer, unassigned) [Example 75, N-(4-(((R)-1-Hydroxy-4-methylpentan-2-yl)amino)-6-((S*)-2-(6-methoxypyridin-3-yl)propyl)-1,3,5-triazin-2-yl)methanesulfonamide] |  | 5180 nM | 2700 nM | > 3000 nM
7 | CC(C)C[C@H](CO)Nc1nc(C[C@@H](C)c2ccc(F)cc2)nc(NS(C)(=O)=O)n1 (single isomer, unassigned) [Example 79, N-(4-((R*)-2-(4-Fluorophenyl)propyl)-6-(((R)-1-hydroxy-4-methylpentan-2-yl)amino)-1,3,5-triazin-2-yl)methanesulfonamide] |  | 2470 nM | 198 nM | 54 nM
8 | CC(C)C[C@H](CO)Nc1nc(C[C@H](C)c2ccc(F)cc2)nc(NS(C)(=O)=O)n1 (single isomer, unassigned) [Example 80, N-(4-((S*)-2-(4-Fluorophenyl)propyl)-6-(((R)-1-hydroxy-4-methylpentan-2-yl)amino)-1,3,5-triazin-2-yl)methanesulfonamide] |  | 4900 nM | 2210 nM | 
9 | CC(C)C[C@H](CO)Nc1nc(C[C@@H](C)c2ccc(F)c(F)c2F)nc(NS(C)(=O)=O)n1 (single isomer, unassigned) [Example 88, N-(4-(((R)-1-Hydroxy-4-methylpentan-2-yl)amino)-6-((R*)-2-(2,3,4-trifluorophenyl)propyl)-1,3,5-triazin-2-yl)methanesulfonamide] | 115 nM |  | 32 nM | 
10 | CC(C)C[C@H](CO)Nc1nc(C[C@H](C)c2ccc(Cl)cn2)nc(NS(C)(=O)=O)n1 (single isomer, unassigned) [Example 149, N-(4-((S*)-2-(5-Chloropyridin-2-yl)propyl)-6-(((R)-1-hydroxy-4-methylpentan-2-yl)amino)-1,3,5-triazin-2-yl)methanesulfonamide] | > 30000 nM | > 30000 nM |  | 
11 | CC(C)C[C@H](CO)Nc1nc(C[C@@H](C)c2ccc(Cl)cn2)nc(NS(C)(=O)=O)n1 (single isomer, unassigned) [Example 150, N-(4-((R*)-2-(5-Chloropyridin-2-yl)propyl)-6-(((R)-1-hydroxy-4-methylpentan-2-yl)amino)-1,3,5-triazin-2-yl)methanesulfonamide] | 1600 nM | 1530 nM | 185 nM | 
12 | CCOc1cc(C(C)Cc2nc(N[C@@H](CO)CC(C)C)nc(NS(C)(=O)=O)n2)ccn1 (stereo partly drawn) [Example 67, N-(4-(2-(2-Ethoxypyridin-4-yl)propyl)-6-(((R)-1-hydroxy-4-methylpentan-2-yl)amino)-1,3,5-triazin-2-yl)methanesulfonamide] |  | 1830 nM | 359 nM | 

Further molecules by falling IC50 (CX3CR1 [2]), results first:

Row | IC50 (CX3CR1 [1]) | IC50 (CX3CR1 [2]) | IC50 (CX3CR1 [3]) | IC50 (CX3CR1 [4]) | Compound
13 |  | 987 nM | 250 nM |  | CCC(Cc1nc(N[C@@H](CO)CC(C)C)nc(NS(C)(=O)=O)n1)c1ccccc1F (stereo partly drawn) [Example 89, N-(4-(2-(2-Fluorophenyl)butyl)-6-(((R)-1-hydroxy-4-methylpentan-2-yl)amino)-1,3,5-triazin-2-yl)methanesulfonamide]
14 | 109 nM | 948 nM | 96 nM |  | CC(C)C[C@H](CO)Nc1nc(C[C@@H](C)c2ccc(F)cc2F)nc(NS(C)(=O)=O)n1 (single isomer, unassigned) [Example 6, N-(4-((R*)-2-(2,4-Difluorophenyl)propyl)-6-(((R)-1-hydroxy-4-methylpentan-2-yl)amino)-1,3,5-triazin-2-yl)methanesulfonamide]
15 |  | 886 nM | 48 nM | 158 nM | COc1ccc([C@H](C)Cc2nc(N[C@@H](CO)CC(C)C)nc(NS(C)(=O)=O)n2)cn1 (single isomer, unassigned) [Example 76, N-(4-(((R)-1-Hydroxy-4-methylpentan-2-yl)amino)-6-((R*)-2-(6-methoxypyridin-3-yl)propyl)-1,3,5-triazin-2-yl)methanesulfonamide]
16 |  | 682 nM | 44 nM |  | CC(C)C[C@H](CO)Nc1nc(CC(C)c2ccnc(Cl)c2)nc(NS(C)(=O)=O)n1 (stereo in doubt) [Example 26, N-(4-((R*)-2-(2-chloropyridin-4-yl)propyl)-6-(((R)-1-hydroxy-4-methylpentan-2-yl)amino)-1,3,5-triazin-2-yl)methanesulfonamide]
17 | 1290 nM | 424 nM | 156 nM |  | CC(C)C[C@H](CO)Nc1nc(C[C@H](C)c2ccc(Cl)cc2F)nc(NS(C)(=O)=O)n1 (single isomer, unassigned) [Example 83, N-(4-((S*)-2-(4-Chloro-2-fluorophenyl)propyl)-6-(((R)-1-hydroxy-4-methylpentan-2-yl)amino)-1,3,5-triazin-2-yl)methanesulfonamide]
18 |  | 348 nM | 173 nM |  | CC(C)C[C@H](CO)Nc1nc(C[C@@H](C)c2ccc(Cl)cc2F)nc(NS(C)(=O)=O)n1 (single isomer, unassigned) [Example 84, N-(4-((R*)-2-(4-Chloro-2-fluorophenyl)propyl)-6-(((R)-1-hydroxy-4-methylpentan-2-yl)amino)-1,3,5-triazin-2-yl)methanesulfonamide]
19 | 499 nM | 68 nM | 17 nM |  | CC(C)C[C@H](CO)Nc1nc(C[C@@H](C)c2cccc(Cl)c2F)nc(NS(C)(=O)=O)n1 (single isomer, unassigned) [Example 4, N-(4-((R*)-2-(3-Chloro-2-fluorophenyl)propyl)-6-(((R)-1-hydroxy-4-methylpentan-2-yl)amino)-1,3,5-triazin-2-yl)methanesulfonamide]
